Source: US20120283269A1, “Method and Compositions for Suppression of Aging” (HEALTH RESEARCH INC., priority 2009, published 2012)

Assays:
[1] = tested on: S6 phosphorylation, a marker of mTOR activity; assay: Immunoblot for p-S6, S6 and p21 in IPTG-treated HT-p21 cells, rapamycin; format: cell-based, human; conditions: IPTG plus rapamycin, 3 days
Procedure: (§1) FIG. 18. Correlation between S6 phosphorylation, hypertrophy and loss of proliferative potential in senescent cells. HT-p21 cells were plated in 6 well plates and treated with IPTG plus the increasing concentrations of rapamycin (from 0.16 to 500 nM). At concentration 0, cells were treated with IPTG alone. A. Cellular hypertrophy: protein and GFP. After 3 days, soluble protein and GFP were measured per well. [Note: in non-proliferating cells, protein/well is a measure of protein/cells]. Results are shown as percent of IPTG alone (0) without rapamycin. B. After 3 days, cells were lysed and immunobloted for p-S6, S6 and p21.
FIG. 24. Induction of p21 by IPTG. HT-p21 cells were plated in 6 well plates and treated with IPTG with or without rapamycin as indicated. The next day, cells were lysed and immunoblot for p-S6, S and p21 was performed as described in Methods.
Immunoblot analysis. Cells were lysed and soluble proteins were harvested as previously described. […] Cells were counted on a Coulter Z1 cell counter (Hialeah, Fla.). […] Plates were photographed and the number of colonies were determined as previously described. […] Thereafter, cells were washed in PBS, and the number of -galactosidase activity-positive cells (blue staining) were counted under bright field illumination.

HT-p21 cells [2] = assay: Colony formation assay after IPTG with or without rapamycin; format: cell-based, human; conditions: IPTG plus rapamycin 3 days, washed; versus IPTG alone
HT-p21 cells [3] = assay: Cellular hypertrophy (protein and GFP per cell) in IPTG-treated HT-p21 cells, rapamycin dose response; format: cell-based, human; conditions: this particular cell line
Procedure: as §1
Cell lines and reagents. In HT-p21 cells, p21 expression can be turned on or off using […] (IPTG). HT-p21 cells were cultured in DMEM medium supplemented with FC2 serum. Rapamycin was obtained from LC Laboratories and dissolved in DMSO as 2 mM solution and was used at final concentration of 500 nM, unless otherwise indicated. IPTG and FC2 were obtained from Sigma-Aldrich (St. Louis, Mo.). IPTG was dissolved in water as 50 mg/ml stock solution and used in cell culture at final concentration of 50 μg/ml.

HT-p21 cells [4] = assay: Preservation of proliferative competence (PC), cell counting after wash; format: cell-based, human
Procedure: C. PC: preservation of proliferative competence. After 3 days, cells were washed to remove IPTG and RAPA. Cells were incubated for additional 5 days in the fresh medium and then were counted. Results are shown as percent of IPTG alone (0) without rapamycin.
FIG. 20. The dynamics of cell numbers. 500 HT-p21 cells were plated in 12 well plates. On the next day, either IPTG alone (I) or IPTG plus rapamycin (I+R) were added. After 3 days, plates were washed (I/w and I+R/w) or left unwashed. Cells were counted at days 1, 3, 6 and 9. Upper panel: linear-scale. Lower panel: log-scale. Open and closed squares: IPTG and IPTG plus Rapa, respectively. Open and closed circles: IPTG washed (I/w) and IPTG plus Rapa washed (I+R/w), respectively.
Immunoblot analysis. Cells were lysed and soluble proteins were harvested as previously described. Immunoblot analysis was performed using mouse monoclonal anti-p21, mouse monoclonal anti-phospho-S6 Ser240/244 (Cell Signaling, MA, USA), rabbit polyclonal anti-S6 (Cell Signaling, MA, USA) and mouse monoclonal anti-tubulin Ab as previously described. Cell counting. Cells were counted on a Coulter Z1 cell counter (Hialeah, Fla.). […] Plates were photographed and the number of colonies were determined as previously described. […] Thereafter, cells were washed in PBS, and the number of -galactosidase activity-positive cells (blue staining) were counted under bright field illumination.

HT-p21-9 cells = conditions: previously reported (Demidenko 2009); cited from earlier work
mTOR pathway [5] = conditions: previously reported (Demidenko 2009); cited from earlier work
WI-38-tert cells = assay: Senescence / quiescence in WI-38-tert fibroblasts; format: cell-based, human; conditions: compound alone
Procedure: (§2) FIG. 4. […] HT-p21-a cells were treated with IPTG and infected with Ad-p53. After 3 days, cells were photographed (original magnification ×200): Upper panel. Under blue light to visualize cells expressing p53 (green cells). Lower panel. Under visible light to visualize all cells. Red arrows indicate cells lacking p53 expression. All of these cells show large, flat cell morphology. Green arrows indicate cells expressing p53. b-d. […] After 1 day, cells were lysed and immunoblot was performed as described in Methods for Example 1. c. […] Cells were then stained for beta-Gal activity and microphotographed. Scale bar—50 μm.d. […] Cells were then trypsinized and counted. […] Results are shown as percent of control.
FIG. 11. Effects of Ad-p21 and Ad-p53 on senescent morphology in WI-38-tert fibroblasts. WI-38-tert cells were infected with either p21-expressing adenovirus (Ad-p21) or p53-expressing adenovirus (Ad-p53) or both. After 3 days, cells were stained for beta-Gal.
Cell lines and reagents. HT-p21-9 and HT-p21-a cells are derivatives of HT1080 human fibrosarcoma cells, where p21 expression can be turned on or off using isopropyl-thio-galactosidase (IPTG) (7, 16, 28, 29, 36). […] HT-p16 cells are derivatives of HT1080 cells in which p16 expression can be turned on or off using IPTG (16, 36). WI-38-Tert, WI-38 are fibroblasts immortalized by telomerase. HT-p21-GSE56 cells: p53 inhibiting peptide GSE56 (18) was introduced into HT1080 p21-9 cells via a retroviral vector LXSE (37). Cells were grown in high glucose DMEM with 10% FC2 serum. WI-38-tert cells were grown in low glucose DMEM with 10% FCS. Rapamycin was obtained from LC Laboratories (Woburn, Mass.). IPTG (final concentration of 50 μg/ml) and FC2 were obtained from Sigma-Aldrich (St. Louis, Mo.).
Beta-galactosidase staining Beta-gal staining was performed using Senescence-galactosidase staining kit (Cell Signaling Technology).

mTOR pathway [6] = assay: Immunoblot for p53, p-S6, p-S6K in WI-38-tert fibroblasts; format: cell-based, human
Procedure: as §2
FIG. 12. […] Immunoblot for p53, p-S6, p-S6K, S6 and actin was performed as described in Methods for Example 1.
Immunoblot analysis. Proteins were separated on 4-15% gradient Tris-HCl gels (Bio-Rad). The following antibodies were used: mouse anti-actin from Santa Cruz Biotechnology, rabbit anti-phospho-S6 (Ser240/244) and (Ser235/236), mouse anti-S6, mouse anti-phospho-p70 S6 kinase (Thr389), mouse anti-p21 and anti-p53, rabbit anti-phospho-4E-BP1 (Thr37/46) from Cell Signaling; mouse anti-4E-BP1 from Invitrogen, mouse anti-p53 (Ab-6) from Calbiochem.

For CO[C@H]1C[C@@H]2CC[C@@H](C)[C@@](O)(O2)C(=O)C(=O)N2CCCC[C@H]2C(=O)O[C@H]([C@H](C)C[C@@H]2CC[C@@H](O)[C@H](OC)C2)CC(=O)[C@H](C)/C=C(\C)[C@@H](O)[C@@H](OC)C(=O)[C@H](C)C[C@H](C)/C=C/C=C/C=C/1C [rapamycin], the “concentrations that inhibited S6 phosphorylation” value [1] was no less than 20 nM, the “increase in number of colonies (number of competent cells)” value (HT-p21 cells [2]) was roughly 10 fold and the “concentration required for anti-hypertrophic effects” value (HT-p21 cells [3]) was 100 to 500 nM. For the same compound, the “doubling time of the competent cells” value (HT-p21 cells [4]; I/w and I+R/w conditions) was 20 to 24 h and the “PC (preservation of competence)” value (HT-p21 cells [4]; IPTG plus rapamycin 3 days, washed, 5 more days, percent of IPTG alone) was 800%.
In the case of N#CC(=C(/N)Sc1ccccc1N)/C(C#N)=C(\N)Sc1ccccc1N [U0126], the cellular senescence (HT-p21-9 cells) is listed as “suppress cellular senescence” and the “mTOR pathway in HT-p21-9 cells, measured by phosphorylation of S6” value (mTOR pathway [5]) is listed as “deactivate the mTOR pathway”.
In the case of COc1cccc2c1C(=O)c1c(O)c3c(c(O)c1C2=O)C[C@@](O)(C(=O)CO)C[C@@H]3O[C@H]1C[C@H](N)[C@H](O)[C@H](C)O1 [doxorubicin], the “type of arrest in WI-38-tert cells” value (WI-38-tert cells) is reported as “caused senescence in WI-38-tert cells” and the “inhibition of mTOR” value (mTOR pathway [6]) is reported as “does not inhibit mTOR”.
